Test results from patent publication USRE32016E, “Analysis of lactic acid or lactate using lactate oxidase” (Eastman Kodak Company, priority 1981, dated 1985).

Biological target: lactate oxidase from Streptococcus faecalis ATCC 12755 (Enterococcus casseliflavus, UniProt C9AC47)
Conditions: read-out: Km for L(+)-lactate; 30° C., potassium phosphate buffer pH 7.0
Protocol: For spectrophotometric assay of the lactate oxidase standard reaction mixtures contained in a total volume of 1.0 ml: 100 μmoles potassium phosphate buffer, pH 7.0, 25 μmoles lactic acid, 30 μg horseradish peroxidase (5.6 purpurogallin units), and 0.25 μmoles orthodianisidine. Samples were equilibrated at 30° C. and then reactions initiated by addition of S. faecalis lactate oxidase. Absorbance at 430 nm was measured in a Beckman A-25 Spectrophotometer. Initial rates were calculated from the linear portion of the curve and converted to units of lactate oxidase activity were appropriate. One unit=1 μmole of dye produced per minute at 30° C. using an ε=1.1×10^4 for orthodianisidine.
Reaction mixtures contained in a total volume of 1.0 ml: 90 μmoles potassium phosphate buffer, (pH 7.0), 0.2 μmoles orthodianisidine, or 96 μg 4-aminoantipyrene hydrochloride and 32 μg 1,7-dihydroxynaphthalene, 25 μg horseradish peroxidase (5.6-purpurogallin units) and 0.64 mg lactate oxidase (0.4 units).
Samples were equilibrated at 30° C. and the initial absorbance measured at 430 nm. […] For each serum sample, a blank, which contained all components except the lactate oxidase, was treated in the same manner as the sample. The ΔA430 for each blank was subtracted from the ΔA430 of the appropriate sample and the lactate concentration was determined by comparison to a lactate standard curve. […]

Sequence of lactate oxidase from Streptococcus faecalis ATCC 12755 (C9AC47 entry or part of it): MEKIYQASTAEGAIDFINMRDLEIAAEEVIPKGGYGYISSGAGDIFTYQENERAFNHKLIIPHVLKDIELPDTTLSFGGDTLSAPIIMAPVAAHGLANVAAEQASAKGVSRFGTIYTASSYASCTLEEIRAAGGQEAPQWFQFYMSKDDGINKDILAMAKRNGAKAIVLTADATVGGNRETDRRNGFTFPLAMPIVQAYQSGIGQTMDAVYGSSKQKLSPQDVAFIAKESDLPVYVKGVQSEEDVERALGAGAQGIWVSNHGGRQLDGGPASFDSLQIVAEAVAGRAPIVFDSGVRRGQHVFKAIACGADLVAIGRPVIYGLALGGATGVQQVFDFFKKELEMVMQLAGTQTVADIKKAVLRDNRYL

For `C[C@H](O)C(=O)O` [L(+)-lactate], which Km is on record?
The Km was 200 µM.
